{
  "source": "patent US7425548B2",
  "about": "“Materials and methods for immune system stimulation” (Variety Chidren's Hospital, priority 2004, dated 2008)",
  "key": {"Water solubility": {"test": "Water solubility", "type": "physicochemical", "protocol": "Isolation and characterization of RR1. […] The final RR1 compound, shown in FIG. 3, was isolated in about 0.1% yield of the total dry material used for extraction as a puffy solid that dissolved in water. […] Therefore, detailed polysaccharide analyses such as the glycosyl composition, linkage, molecular weight and conformation of the glucose units at the anomeric center were performed at the Complex Carbohydrate Research Center, University of Georgia, Athens. […] To perform glycosyl linkage analysis, the sample was permethylated three times by the method of Cikanu and Kereck (Ciucanu, I. and F. Kereck Carbohydr. Res., 1984, 131:209-217), hydrolyzed with 2 M trifluroacetic acid, reduced with NaBD4 and acetylated with acetic anhydride/pyridine and the resulted partially methylated alditol acetates (PMAA) were analyzed by GC/MS. […] The conformations at the anomeric center of the glucopyranosyl units were obtained based on the 500 MHz protonNMR spectra recorded in D2O and by comparison with the anomeric proton signals of standard samples. The molecular mass was obtained from the size exclusion chromatography using SUPELCO silica column (1.0×30 cm), eluting with 50 mM ammonium formate buffer at a rate of […]. and detected by the refractive index. […]"}, "[1]": {"system": "TLR2, TLR4 and TLR6 mRNAs in RAW264.7 cells", "test": "TLR mRNA levels, RT-PCR", "type": "cell-based, mouse", "conditions": "0-1000 μg/m RR1, 24 hours", "protocol": "The cells (1×10^6) were treated with RR1 (0, 10, 100, 500 and 1000 μg/ml) at 37° C. for 24 hours in a CO2 incubator and mRNA amplified with mouse TLR specific primers.\nTLR mRNA and protein levels. TLR2, 4 and 6 mRNA levels were analyzed by RT-PCR using total RNAs extracted from RR1 treated cells. Total RNA was extracted from RR1-treated and untreated RAW 264.7 cells and 0.5 μg/ml RNA was reverse transcribed and amplified using mouse TLR2, 4 and 6 specific PCR primers (R&D SYSTEMS, Minneapolis, Minn.). Mouse GAPDH gene was also amplified as a control. The PCR products were separated on agarose gel."}, "normal lymphocytes": {"system": "normal lymphocytes", "test": "Oxidative stress (GSH/GSSG levels)", "type": "cell-based, human", "conditions": "for GSH / GSH/GSSG / GSSG: 24 hours", "protocol": "Oxidative stress (GSH/GSSG levels). The measure of the reduced (GSH) as well as oxidized (GSSG) levels of glutathione and their ratio are useful indicators for oxidative stress. The levels of GSH and GSSG were assayed by a colorimetric method using Biotech GSH/GSSG-412 kit (Oxis Research, Portland, Oreg.) according to manufacturer's protocol. Briefly, normal blood samples from healthy donors were incubated with different concentrations of RR1 for 24 hours in a 5% CO2 incubator at 37° C. For GSSG, 100 μl of each of the treated sample was frozen at −70° C. for 4 hours, thawed and added 290 μl of 5% meta phosphoric acid (MPA). The samples were vortexed for 15-20 seconds and centrifuged at 1000×g for 10 minutes. MPA extract (50 μl) was added to 700 μl of GSSG buffer that was used for the calorimetric assay. For GSH measurement 50 μl of the whole blood was frozen at −70° C., thawed and added 350 μl of 5% MPA, vortexed for 15-20 seconds and centrifuged at 10,000×g for 10 minutes. MPA extract (50 μl) was added to 3 ml of the assay buffer and used for further analysis. MPA buffer mixture (200 μl) of each standard and sample was transferred to a spectrophotometer cuvette, added 200 μl of chromogen followed by 200 μl of enzyme in the order and incubated at room temperature for 5 minutes. Afterwards, 200 μl of NADPH was added into the cuvette and changes in the absorbance at 412 nm were recorded in a BECKMAN spectrophotometer. The reaction rates were plotted using the absorbance values and the levels of GSH and GSSG were determined."}, "[2]": {"system": "I-κBα in RAW 264.7 macrophages", "test": "I-κBα degradation, immunoblot", "type": "cell-based, mouse", "conditions": "RR1 100 μg/ml, western blot", "protocol": "The cells were treated with RR1 at intervals of 15, 30, and 60 minutes. Degradation of I-κBα levels in cytoplasmic lysates was determined by immunoblot analysis using antimouse I-κBα mAb. I-κBα degradation. The degradation of IκB-α is a prerequisite for the activation of NF-κB. To determine the effect of RR1 on cellular IκB-α levels and its degradation, immunoblot analysis was performed with cytosolic lysates from RR1-treated RAW 264.7 macrophages for different time periods (0, 15 minutes, 30 minutes, 1 hour). The lysates were separated by SDS-PAGE on 12% gels and transferred to nitrocellulose membranes using a TransBlot apparatus (BIO-RAD, Hercules, Calif.). The membranes were hybridized with IκB-α specific monoclonal antibodies (1:1000) by the Western blot hybridization protocol (Lebron, F. et al. J Biol Chem., 2003, 278:25001-25008) using antimouse IκB-α antibody (CELL SIGNALING TECHNOLOGY, Inc, Beverly, Mass.) using the color detection system (BIO-RAD, Hercules, Calif.)."}, "RAW264.7 macrophages": {"system": "RAW264.7 macrophages", "test": "Opsonized binding and phagocytosis of FITC-zymosan A bioparticles", "type": "cell-based, mouse", "conditions": "500 μg/ml, 37° C., 1 hour", "protocol": "Monocytes were incubated with RR1 at 37° C. for 1 hour followed by FITC-labeled zymosan A bioparticles for another 1 hour at 37° C. The cells were washed and intracellular fluorescence measured in a Coulter Elite Flow cytometer.\nOpsonized binding and Phagocytosis. To determine the effect of RR1 and laminarin on opsonized binding and phagocytosis of zymosan A particles, RAW 264.7 cells were treated with RR1 or laminarin (0 and 500 μg/ml) in DMEM at 37° C. for 1 hour. This will ensure the release of opsonins and facilitate opsonic binding. The cells were washed with PBS twice and incubated with zymosan A-FITC bioparticles at a ratio of 25 particles/cell at 37° C. for 1 hour. The cells were suspended in PBS after removing the unbound zymosan particles by extensive washing with the medium, and the intracellular fluorescence analyzed in a Coulter Elite flow cytometer. The fluorescence intensity was expressed as percentage of control."}},
  "data": [
    {"substance": "(1,4)-α-D-glucan [RR1]", "values": [
      {"measurement": "solubility in water", "setting": "Water solubility", "value": "soluble in water"},
      {"measurement": "mRNA levels of TLR2, 4 and 6", "setting": "[1]", "value": "remained similar"},
      {"measurement": "GSH", "setting": "normal lymphocytes; RR1 5 μg/ml", "value": "365.08 ± 3.81", "unit": "µM"},
      {"measurement": "GSH/GSSG", "setting": "normal lymphocytes; RR1 5 μg/ml", "value": "14.05 ± 0.41"},
      {"measurement": "GSSG", "setting": "normal lymphocytes; RR1 5 μg/ml", "value": "22.77 ± 0.58", "unit": "µM"},
      {"measurement": "GSH", "setting": "normal lymphocytes; RR1 10 μg/ml", "value": "366.10 ± 0.97", "unit": "µM"},
      {"measurement": "GSH/GSSG", "setting": "normal lymphocytes; RR1 10 μg/ml", "value": "14.34 ± 0.35"},
      {"measurement": "GSSG", "setting": "normal lymphocytes; RR1 10 μg/ml", "value": "22.67 ± 0.41", "unit": "µM"},
      {"measurement": "GSH", "setting": "normal lymphocytes; RR1 50 μg/ml", "value": "364.43 ± 0.10", "unit": "µM"},
      {"measurement": "GSH/GSSG", "setting": "normal lymphocytes; RR1 50 μg/ml", "value": "14.25 ± 0.40"},
      {"measurement": "GSSG", "setting": "normal lymphocytes; RR1 50 μg/ml", "value": "22.75 ± 0.55", "unit": "µM"},
      {"measurement": "oxidative stress in lymphocytes", "setting": "normal lymphocytes; indicated by GSH, GSSG and their ratio", "value": "does not produce any oxidative stress"},
      {"measurement": "time to complete removal of I-κBα expression", "setting": "[2]", "value": 60, "unit": "min"},
      {"measurement": "inhibitory effect on opsonized binding and phagocytosis of zymosan A bioparticles", "setting": "RAW264.7 macrophages", "value": "failed to show any significant effect"},
      {"measurement": "inhibitory effect on opsonized binding and phagocytosis of zymosan A bioparticles", "setting": "RAW264.7 macrophages; listed as RR-1", "value": "only little inhibitory effect"}
    ]}
  ]
}
